# According to ChEMBL document CHEMBL1201862, “PubChem BioAssay data set” (2004):
#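 96-well plates; 48 h exposure; 5 concentrations. Endpoints by linear interpolation between flanking doses. Not reached: highest tested concentration assigned. The concentration for 50% growth inhibition is given as GI50.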 Calls of active or inactive are those of the source. Rule as the data show it: active = GI50 up to about 1.1 µM and inactive = higher.
# How the values were obtained:
# Experiment in all cases: growth of human tumour cells (NCI), 48 h
# [1] = test system: HT-29
# [2] = test system: NCI-H460
# [3] = test system: SF-295
# [4] = test system: SF-268
# [5] = test system: Hs-578T
# [6] = test system: NCI-H522
# [7] = test system: CAKI-1
# [8] = test system: HOP-62
# [9] = test system: PC-3
# [10] = test system: BT-549
# [11] = test system: SK-MEL-5
# [12] = test system: EKVX
# [13] = test system: OVCAR-5
# [14] = test system: MDA-MB-435
# [15] = test system: HCT-15
# [16] = test system: MDA-N
# [17] = test system: TK-10
# [18] = test system: RPMI-8226
# [19] = test system: SK-MEL-2
SMILES,GI50 [1],GI50 [2],GI50 [3],GI50 [4],GI50 [5],GI50 [6],GI50 [7],GI50 [8],GI50 [9],GI50 [10],GI50 [11],GI50 [12],GI50 [13],GI50 [14],GI50 [15],GI50 [16],GI50 [17],GI50 [18],GI50 [19]
Cc1ccc(C2=Nn3c(nc4sc(C)c(C)c4c3=O)SC2)cc1,> 100 µM (inactive),> 100 µM (inactive),> 100 µM (inactive),> 100 µM (inactive),> 100 µM (inactive),> 100 µM (inactive),> 100 µM (inactive),64.1 µM (inactive),> 100 µM (inactive),> 100 µM (inactive),> 100 µM (inactive),> 100 µM (inactive),> 100 µM (inactive),> 100 µM (inactive),> 100 µM,> 100 µM (inactive),23.3 µM (inactive),> 100 µM (inactive),
c1ccc2c(c1)/C(=N\NC1=NCCN1)c1nc3ccccc3nc1-2,0.521 µM (active),2.44 µM (inactive),2.45 µM (inactive),6.67 µM (inactive),16.6 µM (inactive),2.84 µM (inactive),,3.72 µM (inactive),2.56 µM (inactive),20.9 µM (inactive),2.6 µM (inactive),12.9 µM (inactive),6.64 µM (inactive),6.32 µM (inactive),3.52 µM,7.19 µM (inactive),14.1 µM (inactive),1 µM (active),
CCN(CC)c1ccc(/C=C/c2ccnc3ccccc23)cc1,> 100 µM (inactive),> 100 µM (inactive),> 100 µM (inactive),> 100 µM (inactive),> 100 µM (inactive),,> 100 µM (inactive),> 100 µM (inactive),> 100 µM (inactive),> 100 µM (inactive),> 100 µM (inactive),> 100 µM (inactive),> 100 µM (inactive),> 100 µM (inactive),> 100 µM,> 100 µM (inactive),> 100 µM (inactive),> 100 µM (inactive),> 100 µM (inactive)
CC(C)/C=N\n1c(N)c(C#N)c(C#N)c1C(C)C,33.3 µM (inactive),,16.8 µM (inactive),28.1 µM (inactive),20.4 µM (inactive),19.3 µM (inactive),20.5 µM (inactive),31.1 µM (inactive),17.1 µM (inactive),24.2 µM (inactive),15.7 µM (inactive),20.4 µM (inactive),21.7 µM (inactive),31.3 µM (inactive),24.3 µM,18.6 µM (inactive),22.5 µM (inactive),14.6 µM (inactive),18.2 µM (inactive)
COc1ccc2c(c1)C1OCCNC1CC2 (configuration not stated),> 100 µM (inactive),,> 100 µM (inactive),> 100 µM (inactive),> 100 µM (inactive),> 100 µM (inactive),> 100 µM (inactive),> 100 µM (inactive),> 100 µM (inactive),> 100 µM (inactive),> 100 µM (inactive),> 100 µM (inactive),> 100 µM (inactive),> 100 µM (inactive),> 100 µM,> 100 µM (inactive),> 100 µM (inactive),> 100 µM (inactive),> 100 µM (inactive)
CC(=O)N1C(OC(C)C)CC(C)N1c1ccccc1 (configuration not stated),> 10 µM (inactive),> 10 µM (inactive),> 10 µM (inactive),> 10 µM (inactive),> 10 µM (inactive),,> 10 µM (inactive),> 10 µM (inactive),> 10 µM (inactive),> 10 µM (inactive),> 10 µM (inactive),> 10 µM (inactive),> 10 µM (inactive),> 10 µM (inactive),> 10 µM,> 10 µM (inactive),> 10 µM (inactive),> 10 µM (inactive),> 10 µM (inactive)
O=S(=O)(O)c1ccc(Nc2ccnc3ccccc23)cc1,> 100 µM (inactive),,> 100 µM (inactive),> 100 µM (inactive),> 100 µM (inactive),> 100 µM (inactive),> 100 µM (inactive),> 100 µM (inactive),> 100 µM (inactive),> 100 µM (inactive),> 100 µM (inactive),> 100 µM (inactive),> 100 µM (inactive),> 100 µM (inactive),> 100 µM,> 100 µM (inactive),> 100 µM (inactive),> 100 µM (inactive),> 100 µM (inactive)
CC1(c2nc3cc(Cl)c(Cl)cc3[nH]2)CCC(CO)C(C)(C)O1 (configuration not stated),16.4 µM (inactive),,31 µM (inactive),34.8 µM (inactive),14.8 µM (inactive),6.49 µM (inactive),29.3 µM (inactive),33.3 µM (inactive),29 µM (inactive),17.1 µM (inactive),13.2 µM (inactive),23 µM (inactive),82.2 µM (inactive),41.4 µM (inactive),35.6 µM,29 µM (inactive),27.6 µM (inactive),16.9 µM (inactive),30.3 µM (inactive)
CC(C)(C)OC(=O)NC(Cc1ccc(O)cn1)C(N)=O (configuration not stated),> 100 µM (inactive),> 100 µM (inactive),> 100 µM (inactive),> 100 µM (inactive),> 100 µM (inactive),> 100 µM (inactive),> 100 µM (inactive),> 100 µM (inactive),> 100 µM (inactive),> 100 µM (inactive),> 100 µM (inactive),> 100 µM (inactive),> 100 µM (inactive),> 100 µM (inactive),> 100 µM,> 100 µM (inactive),> 100 µM (inactive),> 100 µM (inactive),
O=C(Cc1ccccc1)c1ccc2[nH]c(=O)oc2c1,37.5 µM (inactive),38.8 µM (inactive),38.2 µM (inactive),16.5 µM (inactive),1.03 µM (active),,59.6 µM (inactive),90.6 µM (inactive),41.3 µM (inactive),48.6 µM (inactive),,12.5 µM (inactive),> 100 µM (inactive),33.7 µM (inactive),58.9 µM,39.3 µM (inactive),97.3 µM (inactive),9.23 µM (inactive),32.6 µM (inactive)
Cc1n[nH]c(=O)n1/N=C/c1cccc(Cl)c1,> 100 µM (inactive),> 100 µM (inactive),> 100 µM (inactive),63.7 µM (inactive),17.7 µM (inactive),,> 100 µM (inactive),49.3 µM (inactive),> 100 µM (inactive),47.2 µM (inactive),,31 µM (inactive),> 100 µM (inactive),94.4 µM (inactive),> 100 µM,> 100 µM (inactive),,> 100 µM (inactive),> 100 µM (inactive)
N#Cc1ccc(Oc2nc3ccc(C(F)(F)F)cc3nc2-c2ccccc2)cc1,16.7 µM (inactive),17.6 µM (inactive),24.8 µM (inactive),24.9 µM (inactive),20.6 µM (inactive),15.6 µM (inactive),22.6 µM (inactive),20.3 µM (inactive),14 µM (inactive),34.4 µM (inactive),19.7 µM (inactive),14.3 µM (inactive),13.4 µM (inactive),17.7 µM (inactive),14.9 µM,23 µM (inactive),19.5 µM (inactive),,19.5 µM (inactive)
